This is an account of results in PubChem BioAssay AID248 (DTP/NCI, 2004).

The test concerns L1210 leukemia ip in BDF1 mice, survival T/C. The test is described as follows: NCI In Vivo Anticancer Drug Screen. Data for tumor model L1210 Leukemia (intraperitoneal) in B6D2F1 (BDF1) mice. As to conditions: endpoint: mean survival time, higher = longer survival. In a few lines:
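Value reflects the ratio of survival in compound-treated mice to survival in vehicle-treated controls, with both groups carrying the same transplanted tumor.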

Where [1] appears, read: dose: 25.0 mg/kg/injection, schedule: Q04DX003 (ip), vehicle: saline.
Setting [2] is: dose: 50.0 mg/kg/injection, schedule: Q04DX003 (ip), vehicle: saline.
Setting [3] is: dose: 100.0 mg/kg/injection, schedule: Q01DX001 (ip), vehicle: saline.
Where [4] appears, read: dose: 100.0 mg/kg/injection, schedule: Q04DX003 (ip), vehicle: saline with Tween-80.
Where [5] appears, read: dose: 200.0 mg/kg/injection, schedule: Q04DX003 (ip), vehicle: saline with Tween-80.
[6] abbreviates: dose: 400.0 mg/kg/injection, schedule: Q04DX003 (ip), vehicle: saline with Tween-80.
The mark [7] stands for this setting: dose: 200.0 mg/kg/injection, schedule: Q01DX001 (ip), vehicle: saline.
Where [8] appears, read: dose: 100.0 mg/kg/injection, schedule: Q01DX001 (ip), vehicle: saline with Tween-80.
The mark [9] stands for this setting: dose: 100.0 mg/kg/injection, schedule: Q01DX009 (ip), vehicle: saline with Tween-80.
[10] abbreviates: dose: 400.0 mg/kg/injection, schedule: Q01DX009 (ip), vehicle: saline with Tween-80.
Setting [11] is: dose: 400.0 mg/kg/injection, schedule: Q01DX001 (ip), vehicle: saline.

Values joined by “and” are separate entries in the source; they are usually repeats but may differ in a detail not shown here. Identical values can stand only once. Toxic doses and inconclusive results are not listed.

On to `CN(C)CC/C=C1\c2ccccc2C(C)(C)c2ccc(Cl)cc21`, for which the T/C reads like this: (dose: 2.0 mg/kg/injection, schedule: Q01DX015 (ip), vehicle: carboxymethylcellulose (CMC)) 97 % of control; (dose: 4.0 mg/kg/injection, schedule: Q01DX015 (ip), vehicle: carboxymethylcellulose (CMC)) 96 % of control; (dose: 8.0 mg/kg/injection, schedule: Q01DX015 (ip), vehicle: carboxymethylcellulose (CMC)) 92 % of control; (dose: 12.5 mg/kg/injection, schedule: Q01DX009 (ip), vehicle: acetone) 86 % of control; (dose: 16.0 mg/kg/injection, schedule: Q01DX015 (ip), vehicle: carboxymethylcellulose (CMC)) 102 % of control and 91 % of control; (dose: 25.0 mg/kg/injection, schedule: Q01DX009 (ip), vehicle: acetone) 94 % of control. Further, the T/C reads like this: under setting [1], 96 % of control; (dose: 32.0 mg/kg/injection, schedule: Q01DX015 (ip), vehicle: carboxymethylcellulose (CMC)) 98 % of control; under setting [2], 91 % of control; under setting [3], 87 % of control.
`C=C(C)COc1c(CCC)cc(C)cc1NC(C)=O`: the T/C is 106 % of control under setting [4], 97 % of control under setting [5] and 104 % of control under setting [6].
Turning to `O=NN(CCCl)C(=O)N[C@@H]1CCCC[C@H]1NC(=O)N(CCCl)N=O`, the T/C (dose: 25.0 mg/kg/injection, schedule: Q01DX001 (ip), vehicle: carboxymethylcellulose (CMC)) was 180 % of control; the T/C (dose: 37.5 mg/kg/injection, schedule: Q01DX001 (ip), vehicle: carboxymethylcellulose (CMC)) is 165 % of control; the T/C (dose: 50.0 mg/kg/injection, schedule: Q01DX001 (ip), vehicle: carboxymethylcellulose (CMC)) is 215 % of control; the T/C (dose: 75.0 mg/kg/injection, schedule: Q01DX001 (ip), vehicle: carboxymethylcellulose (CMC)) is 260 % of control; the T/C under setting [3] was 233 % of control; the T/C (dose: 150.0 mg/kg/injection, schedule: Q01DX001 (ip), vehicle: carboxymethylcellulose (CMC)) is 308 % of control. Also, the T/C is 106 % of control under setting [7] and 89 % of control (dose: 300.0 mg/kg/injection, schedule: Q01DX001 (ip), vehicle: saline).
For the compound `CCC/C=N/NC(=O)CCCCCCCCCCCCCCCCC`, the T/C (dose: 100.0 mg/kg/injection, schedule: Q01DX009 (ip), vehicle: Klucel (hydroxypropylcellulose) (HPC)) was 86 % of control; the T/C (dose: 200.0 mg/kg/injection, schedule: Q01DX009 (ip), vehicle: Klucel (hydroxypropylcellulose) (HPC)) was 88 % of control; the T/C (dose: 400.0 mg/kg/injection, schedule: Q01DX009 (ip), vehicle: Klucel (hydroxypropylcellulose) (HPC)) is 88 % of control.
In the case of `CC1(C)N=C(N)N=C(N)N1c1cc(Cl)cc(CCNC(=O)Nc2ccc(S(=O)(=O)F)cc2)c1`, the T/C was 98 % of control (dose: 25.0 mg/kg/injection, schedule: Q01DX001 (ip), vehicle: saline with Tween-80); 98 % of control (dose: 50.0 mg/kg/injection, schedule: Q01DX001 (ip), vehicle: saline with Tween-80); 106 % of control under setting [8].
For the compound `O=C1OC(=O)C2CC(Br)C(Br)CC12` (stereo not given), the T/C is 92 % of control under setting [9]; 94 % of control and 102 % of control under setting [4]; 89 % of control (dose: 200.0 mg/kg/injection, schedule: Q01DX009 (ip), vehicle: saline with Tween-80); 94 % of control under setting [5]; 89 % of control under setting [10]; 91 % of control and 93 % of control under setting [6].
`N/N=C1/CCc2ccccc21`: the T/C reads like this: (dose: 100.0 mg/kg/injection, schedule: Q01DX001 (ip), vehicle: Klucel (hydroxypropylcellulose) (HPC)) 90 % of control; (dose: 200.0 mg/kg/injection, schedule: Q01DX001 (ip), vehicle: Klucel (hydroxypropylcellulose) (HPC)) 112 % of control.
With `CC1(C(Cl)(Cl)Cl)C=CC(=NOCC(=O)O)C=C1` (stereo not given), the T/C is 98 % of control (dose: 100.0 mg/kg/injection, schedule: Q04DX002 (ip), vehicle: Klucel (hydroxypropylcellulose) (HPC)); 95 % of control (dose: 200.0 mg/kg/injection, schedule: Q04DX002 (ip), vehicle: Klucel (hydroxypropylcellulose) (HPC)); 98 % of control (dose: 400.0 mg/kg/injection, schedule: Q04DX002 (ip), vehicle: Klucel (hydroxypropylcellulose) (HPC)).
Regarding `Cc1ccc([N+](=O)[O-])cc1[I+]c1ccccc1C(=O)[O-]`, the T/C reads like this: (dose: 50.0 mg/kg/injection, schedule: Q01DX001 (ip), vehicle: saline) 103 % of control; under setting [3], 106 % of control; under setting [7], 91 % of control; under setting [11], 101 % of control.
In the case of `Cc1c2c(cc3c1[nH]c1ccccc13)C(C(F)(F)F)=NCC2`, the T/C (dose: 16.0 mg/kg/injection, schedule: Q01DX005 (ip), vehicle: saline) is 97 % of control; the T/C (dose: 32.0 mg/kg/injection, schedule: Q01DX005 (ip), vehicle: saline) is 100 % of control; the T/C (dose: 64.0 mg/kg/injection, schedule: Q01DX005 (ip), vehicle: saline) was 100 % of control; the T/C (dose: 128.0 mg/kg/injection, schedule: Q01DX005 (ip), vehicle: saline) was 101 % of control.
For `COc1ccc2ncccc2c1`, the T/C was 111 % of control (dose: 100.0 mg/kg/injection, schedule: Q04DX002 (ip), vehicle: saline); 101 % of control (dose: 200.0 mg/kg/injection, schedule: Q04DX002 (ip), vehicle: saline); 104 % of control (dose: 400.0 mg/kg/injection, schedule: Q04DX002 (ip), vehicle: saline).
Take `COC(=O)CCCc1c[nH]c2ccccc12`: the T/C reads like this: (dose: 100.0 mg/kg/injection, schedule: Q01DX009 (ip), vehicle: other) 93 % of control; (dose: 200.0 mg/kg/injection, schedule: Q01DX009 (ip), vehicle: other) 100 % of control; (dose: 400.0 mg/kg/injection, schedule: Q01DX009 (ip), vehicle: other) 90 % of control.
As to `O=C(CSc1cc(Cl)c(Cl)cc1Cl)Nc1ccc(Cl)cc1Cl`, the T/C under setting [8] is 87 % of control; the T/C (dose: 200.0 mg/kg/injection, schedule: Q01DX001 (ip), vehicle: saline with Tween-80) is 93 % of control; the T/C (dose: 400.0 mg/kg/injection, schedule: Q01DX001 (ip), vehicle: saline with Tween-80) was 93 % of control.
As to `CC1(C)N=C(N)N=C(N)N1c1ccc(C(=O)c2ccccc2)cc1`, the T/C by setting is: under setting [1], 96 % of control; under setting [2], 89 % of control.
For the compound `O=[N+]([O-])c1cc(C(F)(F)F)cc([N+](=O)[O-])c1N/N=C/c1ccc(F)cc1`, the T/C (dose: 25.0 mg/kg/injection, schedule: Q01DX009 (ip), vehicle: saline with Tween-80) was 87 % of control; the T/C (dose: 50.0 mg/kg/injection, schedule: Q01DX009 (ip), vehicle: saline with Tween-80) was 94 % of control; the T/C under setting [9] was 92 % of control and 89 % of control; the T/C under setting [10] was 86 % of control.
With `COS(=O)(=O)c1ccc([N+](=O)[O-])cc1[N+](=O)[O-]`, the T/C reads like this: under setting [3], 100 % of control; under setting [7], 94 % of control; under setting [11], 91 % of control.
In the case of `CC(C)=NC(=O)NO.[Cl][Zn][Cl]`, the T/C is, setting by setting: (dose: 15.0 mg/kg/injection, schedule: Q01DX001 (ip), vehicle: carboxymethylcellulose (CMC)) 95 % of control; (dose: 30.0 mg/kg/injection, schedule: Q01DX001 (ip), vehicle: carboxymethylcellulose (CMC)) 89 % of control; (dose: 60.0 mg/kg/injection, schedule: Q01DX001 (ip), vehicle: carboxymethylcellulose (CMC)) 100 % of control.
Turning to `C/C(=C\COc1ccccc1)CCC1OC1(C)C` (stereo not given), the T/C (dose: 100.0 mg/kg/injection, schedule: Q04DX002 (ip), vehicle: saline with Tween-80) was 100 % of control; the T/C (dose: 200.0 mg/kg/injection, schedule: Q04DX002 (ip), vehicle: saline with Tween-80) was 93 % of control; the T/C (dose: 400.0 mg/kg/injection, schedule: Q04DX002 (ip), vehicle: saline with Tween-80) is 104 % of control.
